These results are taken from BindingDB's records for doi:10.1021/acschembio.7b00186 (University of Strasburg, 2017).

Structures are written as SMILES.

The target of the first experiment is T1, ADP-ribosyl cyclase/cyclic ADP-ribose hydrolase [1-303] (Blood fluke, UniProt Q32TF5).
T1 construct: 1-303
T1 sequence (Q32TF5 whole entry): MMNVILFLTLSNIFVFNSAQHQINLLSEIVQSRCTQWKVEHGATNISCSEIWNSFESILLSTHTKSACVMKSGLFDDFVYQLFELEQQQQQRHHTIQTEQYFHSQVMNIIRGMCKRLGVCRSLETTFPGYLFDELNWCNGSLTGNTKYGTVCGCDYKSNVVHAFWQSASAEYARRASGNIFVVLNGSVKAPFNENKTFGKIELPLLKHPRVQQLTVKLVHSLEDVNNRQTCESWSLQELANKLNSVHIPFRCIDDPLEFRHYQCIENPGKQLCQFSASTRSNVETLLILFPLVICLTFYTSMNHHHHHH
In words: NAD glycohydrolase assay. The settings on record: pH 7.4; 37 °C. The procedure: (§1) SmNACE activity and inhibition were measured with a sensitive, continuous, fluorometric assay platform that used 1,N6-ethenonicotinamide adenine dinucleotide (εNAD; Sigma-Aldrich, Inc.) as a substrate. This assay consists of measuring the appearance of the fluorescent εADP-ribose reaction product with excitation (λexc) and emission (λem) wavelengths of 310 and 410 nm, respectively, at 37 °C using the thermostatically controlled Spectramax Gemini XPS fluorescence plate reader (100 uL reaction volume; Molecular Devices, LLC) or the thermostatically controlled RF-5301PC spectrofluorophotometer (1 mL reaction volume; Shimadzu Scientific Instruments). The biochemical assay with 100 ug/mL of recombinant SmNACE was carried out in a 10 mM potassium phosphate buffer, at pH 7.4, containing 0.05% (w/v) emulphogen.
Usually IC50 stands for the midpoint of a concentration-inhibition curve. The compound `Cc1occc1C(=O)N/N=C/c1ccc(O)c(O)c1` [SmNACE inhibitor, 1] returned an IC50 of 88000 nM.

Consider `Cc1occc1C(=O)N/N=C/c1cc(Cl)ccc1O` [SmNACE inhibitor, 2], for which the midpoint of inhibition, the IC50, lay at 33 nM.

On to `O=C(Nc1nc(=O)c2ccccc2s1)c1ccco1` [SmNACE inhibitor, 3], for which the midpoint of inhibition, the IC50, lay at 2200 nM.

In the case of `Cc1ccc2c(c1)C[N]1NC(C3CCOC3C)[O][Zn+]1[O]2` (stereo not drawn) [Zn(II) complex of 2], the IC50 was found to be 330 nM. Against the preceding compound, the IC50 is about 6.7-fold lower.

Another experiment addresses T2, ADP-ribosyl cyclase/cyclic ADP-ribose hydrolase (Blood fluke, UniProt Q32TF5).
T2 sequence (Q32TF5 whole entry): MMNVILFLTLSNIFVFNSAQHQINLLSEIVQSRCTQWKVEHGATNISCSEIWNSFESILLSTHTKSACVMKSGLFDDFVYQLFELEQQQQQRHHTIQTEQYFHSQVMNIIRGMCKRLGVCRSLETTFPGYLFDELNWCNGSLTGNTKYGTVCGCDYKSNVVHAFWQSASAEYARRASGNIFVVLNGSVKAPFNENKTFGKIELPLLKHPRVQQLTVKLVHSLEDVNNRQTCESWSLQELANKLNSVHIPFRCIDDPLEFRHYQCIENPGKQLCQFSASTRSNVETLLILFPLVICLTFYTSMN
The experiment can be described thus: NAD glycohydrolase assay. The settings on record: pH 7.4; 37 °C. The procedure: as §1
`Cc1occc1C(=O)N/N=C/c1ccc(O)c(O)c1` [SmNACE inhibitor, 1]: the IC50 is 69000 nM.

Take `Cc1occc1C(=O)N/N=C/c1cc(Cl)ccc1O` [SmNACE inhibitor, 2]: the IC50 is 126 nM.

`O=C(Nc1nc(=O)c2ccccc2s1)c1ccco1` [SmNACE inhibitor, 3] had an IC50 of over 20000 nM.

For the compound `Cc1ccc2c(c1)C[N]1NC(C3CCOC3C)[O][Zn+]1[O]2` (stereo not drawn) [Zn(II) complex of 2], the concentration for half-maximal inhibition (IC50) is over 200000 nM.
